Laboratory results published in ChEMBL document CHEMBL5523703, “Modulators for palmitoylation of proteins and small molecules” (Eur J Med Chem, 2024).
pIC50, pKi: −log10 of the molar value. One block for each compound: values may come before it.

Columns and labels:
[1] = biological target: Serine palmitoyltransferase small subunit B (Homo sapiens, UniProt Q8NFR3); experiment: Inhibition of SPTSSB (unknown origin) expressed in HEK293T cells; type: cell-based
[2] = biological target: T1, Carnitine O-palmitoyltransferase 1, liver isoform (Rattus norvegicus, UniProt P32198); experiment: Inhibition of rat hepatocytes CPT1A; type: cell-based, Hepatocyte
T1 sequence (P32198 whole entry): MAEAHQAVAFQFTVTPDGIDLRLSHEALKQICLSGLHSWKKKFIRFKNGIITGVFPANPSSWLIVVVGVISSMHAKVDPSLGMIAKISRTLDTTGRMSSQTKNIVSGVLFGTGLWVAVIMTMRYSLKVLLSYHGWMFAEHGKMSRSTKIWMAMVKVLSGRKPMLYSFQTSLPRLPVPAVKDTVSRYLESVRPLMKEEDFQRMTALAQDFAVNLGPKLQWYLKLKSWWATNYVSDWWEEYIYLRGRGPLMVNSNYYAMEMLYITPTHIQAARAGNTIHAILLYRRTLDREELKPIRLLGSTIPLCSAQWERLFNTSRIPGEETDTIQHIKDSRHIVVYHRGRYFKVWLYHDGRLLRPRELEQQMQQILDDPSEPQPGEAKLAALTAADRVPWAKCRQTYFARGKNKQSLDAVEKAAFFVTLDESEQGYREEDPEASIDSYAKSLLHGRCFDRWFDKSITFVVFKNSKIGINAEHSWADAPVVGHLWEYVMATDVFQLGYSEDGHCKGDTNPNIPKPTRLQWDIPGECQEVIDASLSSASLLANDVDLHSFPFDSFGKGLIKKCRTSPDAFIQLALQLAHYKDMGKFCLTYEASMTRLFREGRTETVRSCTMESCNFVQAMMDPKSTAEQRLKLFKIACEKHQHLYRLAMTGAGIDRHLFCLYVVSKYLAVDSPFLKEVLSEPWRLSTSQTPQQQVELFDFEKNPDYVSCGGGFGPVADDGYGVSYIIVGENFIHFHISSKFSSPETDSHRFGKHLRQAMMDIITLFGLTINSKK

[3] = biological target: T2, Carnitine O-palmitoyltransferase 1, muscle isoform (Homo sapiens, UniProt Q92523); experiment: Inhibition of CPT1B (unknown origin) in KB cells; type: cell-based
T2 sequence (Q92523 whole entry): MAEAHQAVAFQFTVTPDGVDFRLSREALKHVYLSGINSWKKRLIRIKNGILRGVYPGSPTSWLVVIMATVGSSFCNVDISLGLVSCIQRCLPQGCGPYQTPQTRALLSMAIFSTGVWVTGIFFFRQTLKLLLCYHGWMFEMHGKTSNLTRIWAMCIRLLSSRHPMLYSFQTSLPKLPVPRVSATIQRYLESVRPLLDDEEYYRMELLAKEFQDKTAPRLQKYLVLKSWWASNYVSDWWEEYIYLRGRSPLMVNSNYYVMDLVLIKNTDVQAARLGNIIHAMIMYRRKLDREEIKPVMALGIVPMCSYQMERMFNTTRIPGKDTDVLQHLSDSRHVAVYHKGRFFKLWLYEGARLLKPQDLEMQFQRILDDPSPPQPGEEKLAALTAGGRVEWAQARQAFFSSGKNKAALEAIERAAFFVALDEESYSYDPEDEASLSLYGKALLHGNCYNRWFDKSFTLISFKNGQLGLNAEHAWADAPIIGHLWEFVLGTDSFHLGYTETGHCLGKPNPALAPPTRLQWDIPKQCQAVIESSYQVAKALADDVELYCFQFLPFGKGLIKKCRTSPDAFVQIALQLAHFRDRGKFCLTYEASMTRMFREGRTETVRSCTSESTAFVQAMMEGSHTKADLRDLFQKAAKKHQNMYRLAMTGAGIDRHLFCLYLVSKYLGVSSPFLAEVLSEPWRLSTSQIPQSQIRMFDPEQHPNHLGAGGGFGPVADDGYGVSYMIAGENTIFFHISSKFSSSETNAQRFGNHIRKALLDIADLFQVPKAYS

[4] = system: LN-18; experiment: Antitumor activity against human LN-18 cells assessed as reduction in cell growth incubated for 72 hrs in presence of sirtuins inhibitor by crystal violet staining based analysis; type: functional; conditions: LN-18, 72 h
[5] = biological target: T3, Protein-cysteine N-palmitoyltransferase HHAT (Homo sapiens, UniProt Q5VTY9); experiment: Inhibition of His-tagged HHAT (unknown origin) transfected in HEK293FT cells; type: cell-based
T3 sequence (Q5VTY9 whole entry): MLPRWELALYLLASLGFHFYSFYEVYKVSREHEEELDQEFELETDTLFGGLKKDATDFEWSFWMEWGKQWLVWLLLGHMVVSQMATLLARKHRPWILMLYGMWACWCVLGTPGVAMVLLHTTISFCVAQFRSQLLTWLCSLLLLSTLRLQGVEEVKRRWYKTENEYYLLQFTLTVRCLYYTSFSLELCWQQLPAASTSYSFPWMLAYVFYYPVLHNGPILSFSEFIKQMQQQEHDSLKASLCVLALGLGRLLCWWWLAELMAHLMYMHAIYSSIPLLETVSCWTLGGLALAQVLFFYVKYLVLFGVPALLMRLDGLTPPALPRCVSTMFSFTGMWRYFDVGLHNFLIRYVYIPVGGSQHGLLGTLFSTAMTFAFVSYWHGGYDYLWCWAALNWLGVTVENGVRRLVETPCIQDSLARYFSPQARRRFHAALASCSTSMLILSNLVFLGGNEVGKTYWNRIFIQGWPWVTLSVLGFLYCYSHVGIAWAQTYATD

[6] = system: NCI-H226; experiment: Antitumor activity against human NCI-H226 cells xenografted in CDX mouse model assessed as reduction in tumor growth at 75 mg/kg relative to control; type: functional; set-up: scale not given: the % may be the effect or the level left
[7] = biological target: T4, Transcriptional enhancer factor TEF-1 (Homo sapiens, UniProt P28347); experiment: Inhibition of N-terminal His-tagged human TEAD1 expressed in Escherichia coli BL21 (DE3) (209 to 424 residues) by affinity chromatography analysis
T4 sequence (P28347 whole entry, the tested form may be a part): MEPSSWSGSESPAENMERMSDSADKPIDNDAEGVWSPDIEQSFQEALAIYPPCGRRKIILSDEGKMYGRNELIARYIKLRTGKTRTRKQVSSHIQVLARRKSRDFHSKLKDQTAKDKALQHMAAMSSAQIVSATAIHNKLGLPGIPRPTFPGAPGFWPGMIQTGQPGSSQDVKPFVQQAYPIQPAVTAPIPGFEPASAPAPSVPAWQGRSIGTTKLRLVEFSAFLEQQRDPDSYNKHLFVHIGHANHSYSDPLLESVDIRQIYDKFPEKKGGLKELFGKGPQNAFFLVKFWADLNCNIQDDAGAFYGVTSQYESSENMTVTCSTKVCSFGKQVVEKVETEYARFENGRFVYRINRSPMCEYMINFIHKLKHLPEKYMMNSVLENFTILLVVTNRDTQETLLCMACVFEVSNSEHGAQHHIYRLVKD

[8] = system: NCI-H226; experiment: Antitumor activity against human NCI-H226 cells xenografted in CDX mouse model assessed as reduction in tumor growth at 30 mg/kg relative to control; type: functional; set-up: scale not given: the % may be the effect or the level left
[9] = organism: Homo sapiens; experiment: Inhibition of ZDHHC (unknown origin) at 20 uM relative to control
[10] = system: MCF7; experiment: Antiproliferative activity against human MCF7 cells assessed as reduction in cell growth measured after 72 hrs by MTT assay; type: functional, cell-based; conditions: MCF7, 72 h
[11] = biological target: T5, Carnitine O-palmitoyltransferase 1, liver isoform (Homo sapiens, UniProt P50416); experiment: Binding affinity to CPT1 (unknown origin) assessed as inhibition constant
T5 sequence (P50416 whole entry): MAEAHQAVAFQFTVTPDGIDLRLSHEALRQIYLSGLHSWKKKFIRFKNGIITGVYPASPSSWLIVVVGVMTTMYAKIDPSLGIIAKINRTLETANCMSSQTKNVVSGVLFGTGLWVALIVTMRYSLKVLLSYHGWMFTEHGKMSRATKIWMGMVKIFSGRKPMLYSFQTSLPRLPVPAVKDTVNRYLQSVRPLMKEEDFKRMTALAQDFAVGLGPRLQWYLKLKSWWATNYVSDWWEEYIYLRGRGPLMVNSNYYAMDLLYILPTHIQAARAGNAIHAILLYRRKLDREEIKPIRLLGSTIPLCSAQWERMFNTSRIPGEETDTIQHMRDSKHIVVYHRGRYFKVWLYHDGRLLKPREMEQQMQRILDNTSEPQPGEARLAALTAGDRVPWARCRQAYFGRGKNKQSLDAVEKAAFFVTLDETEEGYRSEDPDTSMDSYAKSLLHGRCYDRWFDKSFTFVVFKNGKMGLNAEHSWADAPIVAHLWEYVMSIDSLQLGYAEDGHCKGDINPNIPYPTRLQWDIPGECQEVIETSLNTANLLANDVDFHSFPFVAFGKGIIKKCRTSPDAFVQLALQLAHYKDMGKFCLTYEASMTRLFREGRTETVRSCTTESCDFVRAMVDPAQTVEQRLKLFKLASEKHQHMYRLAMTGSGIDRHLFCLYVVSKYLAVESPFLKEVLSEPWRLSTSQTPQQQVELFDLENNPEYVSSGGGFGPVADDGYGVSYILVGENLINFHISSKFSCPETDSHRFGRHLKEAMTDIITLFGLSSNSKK

[12] = biological target: T5, Carnitine O-palmitoyltransferase 1, liver isoform; experiment: Inhibition of CPT1 (unknown origin)
[13] = Inhibition of SPT in mouse Neuro2a cells; type: cell-based
[14] = Inhibition of SPT (unknown origin); set-up: species or system Homo sapiens
[15] = biological target: T3, Protein-cysteine N-palmitoyltransferase HHAT; experiment: Inhibition of HHAT (unknown origin)
[16] = biological target: Palmitoyltransferase ZDHHC7 (Homo sapiens, UniProt Q9NXF8); experiment: Inhibition of ZDHHC7 (unknown origin)
Chain of Palmitoyltransferase ZDHHC7 (Q9NXF8 whole entry): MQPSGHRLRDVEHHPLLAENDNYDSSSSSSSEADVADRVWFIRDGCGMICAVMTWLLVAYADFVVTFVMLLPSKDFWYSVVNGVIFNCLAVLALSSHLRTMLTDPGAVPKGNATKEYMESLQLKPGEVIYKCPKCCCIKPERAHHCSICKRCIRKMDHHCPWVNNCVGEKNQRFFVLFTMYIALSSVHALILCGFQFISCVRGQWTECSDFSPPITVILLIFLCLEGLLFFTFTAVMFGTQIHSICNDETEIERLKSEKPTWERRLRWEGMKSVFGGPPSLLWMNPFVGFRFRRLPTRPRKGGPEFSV

[17] = biological target: Palmitoyltransferase ZDHHC3 (Homo sapiens, UniProt Q9NYG2); experiment: Inhibition of ZDHHC3 (unknown origin)
Chain of Palmitoyltransferase ZDHHC3 (Q9NYG2 whole entry): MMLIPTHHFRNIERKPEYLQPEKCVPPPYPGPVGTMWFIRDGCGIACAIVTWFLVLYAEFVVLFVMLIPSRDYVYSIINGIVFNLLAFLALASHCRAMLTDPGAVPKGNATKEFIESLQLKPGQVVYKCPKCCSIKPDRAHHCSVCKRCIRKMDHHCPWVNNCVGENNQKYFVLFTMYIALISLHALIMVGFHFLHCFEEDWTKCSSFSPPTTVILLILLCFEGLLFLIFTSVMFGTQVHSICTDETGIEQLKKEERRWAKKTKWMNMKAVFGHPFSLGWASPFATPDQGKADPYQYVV

[18] = biological target: Tyrosine-protein kinase Lck (Homo sapiens, UniProt P06239); experiment: Inhibition of N-terminal human recombinant Lck expressed in baculovirus infected in Sf9 cells
Chain of Tyrosine-protein kinase Lck (P06239 whole entry, canonical isoform): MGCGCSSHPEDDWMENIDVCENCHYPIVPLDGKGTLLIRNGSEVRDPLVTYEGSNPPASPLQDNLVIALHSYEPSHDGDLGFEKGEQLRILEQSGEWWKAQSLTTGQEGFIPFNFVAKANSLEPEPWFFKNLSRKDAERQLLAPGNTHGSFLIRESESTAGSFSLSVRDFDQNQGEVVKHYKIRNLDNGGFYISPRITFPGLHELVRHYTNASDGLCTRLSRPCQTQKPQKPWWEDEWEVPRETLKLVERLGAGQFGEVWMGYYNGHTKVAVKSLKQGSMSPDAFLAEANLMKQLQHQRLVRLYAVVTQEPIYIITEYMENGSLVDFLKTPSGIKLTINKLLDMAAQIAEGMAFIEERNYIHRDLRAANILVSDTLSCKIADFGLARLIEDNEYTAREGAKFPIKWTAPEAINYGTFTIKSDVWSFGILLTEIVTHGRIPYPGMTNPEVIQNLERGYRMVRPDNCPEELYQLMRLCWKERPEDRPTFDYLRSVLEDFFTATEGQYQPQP

[19] = biological target: Carnitine O-palmitoyltransferase 1, liver isoform (Homo sapiens) (UniProt P50416); experiment: Inhibition of CPT1 (unknown origin) at 10 uM relative to control
[20] = biological target: Palmitoyltransferase ZDHHC9 (Homo sapiens, UniProt Q9Y397); experiment: Binding affinity to ZDHHC9 (unknown origin) assessed as inhibition constant
Chain of Palmitoyltransferase ZDHHC9 (Q9Y397 whole entry): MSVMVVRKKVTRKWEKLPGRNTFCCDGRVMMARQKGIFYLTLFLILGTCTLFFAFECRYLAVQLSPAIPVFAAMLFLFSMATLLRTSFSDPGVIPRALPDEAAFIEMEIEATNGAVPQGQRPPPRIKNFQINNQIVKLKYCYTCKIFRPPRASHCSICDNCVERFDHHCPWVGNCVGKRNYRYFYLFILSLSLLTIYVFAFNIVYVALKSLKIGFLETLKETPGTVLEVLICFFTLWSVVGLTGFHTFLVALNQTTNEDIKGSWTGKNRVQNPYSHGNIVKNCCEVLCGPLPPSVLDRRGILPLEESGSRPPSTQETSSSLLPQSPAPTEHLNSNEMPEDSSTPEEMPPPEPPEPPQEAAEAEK

[21] = biological target: Carnitine O-palmitoyltransferase 2, mitochondrial (Rattus norvegicus, UniProt P18886); experiment: Inhibition of rat CPT2
Chain of Carnitine O-palmitoyltransferase 2, mitochondrial (P18886 whole entry, the tested form may be a part): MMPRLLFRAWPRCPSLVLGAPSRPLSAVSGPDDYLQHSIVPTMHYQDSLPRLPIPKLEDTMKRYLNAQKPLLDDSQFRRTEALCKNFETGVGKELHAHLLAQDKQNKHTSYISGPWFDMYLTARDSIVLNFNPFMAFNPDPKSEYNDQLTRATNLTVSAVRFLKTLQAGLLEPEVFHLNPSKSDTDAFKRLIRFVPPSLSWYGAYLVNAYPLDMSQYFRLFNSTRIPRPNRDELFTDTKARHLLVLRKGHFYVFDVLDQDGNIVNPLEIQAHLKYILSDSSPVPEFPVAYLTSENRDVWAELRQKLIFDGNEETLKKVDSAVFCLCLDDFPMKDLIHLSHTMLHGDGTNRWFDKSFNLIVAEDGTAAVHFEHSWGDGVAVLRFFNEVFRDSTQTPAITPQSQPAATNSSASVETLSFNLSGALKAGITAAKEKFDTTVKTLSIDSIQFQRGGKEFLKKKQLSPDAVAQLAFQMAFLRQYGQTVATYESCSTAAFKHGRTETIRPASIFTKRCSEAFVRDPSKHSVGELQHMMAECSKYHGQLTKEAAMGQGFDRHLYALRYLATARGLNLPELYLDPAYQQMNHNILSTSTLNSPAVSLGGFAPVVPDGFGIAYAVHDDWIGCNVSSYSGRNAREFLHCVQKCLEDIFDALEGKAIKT

[22] = biological target: T4, Transcriptional enhancer factor TEF-1; experiment: Inhibition of N-terminal 6His-tagged human TEAD1 YAP-binding domain (209 to 426 residues) expressed in Escherichia coli BL21 (DE3)
[23] = Inhibition of N-terminal 6His-tagged human TEAD1 YAP-binding domain (219 to 435 residues) expressed in Escherichia coli BL21 (DE3)

Chain of Serine palmitoyltransferase small subunit B (Q8NFR3 whole entry, canonical isoform): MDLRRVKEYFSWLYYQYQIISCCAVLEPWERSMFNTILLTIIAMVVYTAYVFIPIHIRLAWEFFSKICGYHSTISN

SMILES: CC(C)=CCC[C@]1(C)C=Cc2c(O)c3c(c(CC=C(C)C)c2O1)O[C@]12C(=C[C@@H]4C[C@H]1C(C)(C)O[C@@]2(C/C=C(/C)C(=O)O)C4=O)C3=O [GAMBOGIC ACID]
pIC50 [1]: 5.66

SMILES: CC(C)(C)NC1CCN(c2cc(NCc3ccc(Cl)cc3)nc3ccccc23)CC1 [EZURPIMTROSTAT]
pIC50 [4]: 6.66

SMILES: C=CCNCC(=O)N1CCc2sccc2C1COc1ccc(Cl)c(C)c1 (centres undefined)
pIC50 [5]: 6.74

SMILES: C=CC(=O)NCc1ccc(OC(=O)c2cccc(Oc3ccccc3)c2)cc1
inhibition [9]: 89.5%
pIC50 [10]: 4.30

SMILES: CNC(=O)c1ccc2c(c1)CC(=O)N2C1CCN(CC(=O)N2CC3CCCC3C2)CC1 (centres undefined)
pIC50 [13]: 5.02
pIC50 [14]: 7.56

SMILES: CCCCCCCCCCCCCCC(Br)C(=O)O (centres undefined)
pIC50 [18]: 5.00

Now from value to compound, other results behind:

pIC50 [2]: 5.87
pIC50 [3]: 7.80
SMILES: COc1ccc(Cl)cc1S(=O)(=O)N1CC(C(=O)O)Oc2ccc(C(=O)Nc3cccc(F)c3)cc21 (centres undefined)

pIC50 [7]: 7.96
SMILES: C=C(F)C(=O)N1C[C@@H](Nc2ncccn2)[C@H](OCc2ccc(C(F)(F)F)cc2)C1
Activity [6]: 68%
Activity [8]: 54%

pKi [11]: 6.44
pIC50 [12]: 6.17
SMILES: CCCCCCCCCCCCCCNC(=O)N[C@H](CC(=O)[O-])C[N+](C)(C)C

pIC50 [15]: 6.34
SMILES: CCC(C)CNCC(=O)N1CCc2sccc2C1c1cccc(C)c1 (centres undefined)

pIC50 [16]: 5.36
pIC50 [17]: ~4.30
SMILES: CCCCCCCCCCCCCCC(Br)C(=O)SCCNC(C)=O (centres undefined)

inhibition [19]: 66%
SMILES: CCCCCCCCCCCCCC[C@]1(C(=O)O)CO1

pKi [20]: 4.14
SMILES: CC(C)Cc1ccc(C(C)CN2CCNC[C@@H]2CCCCN2CCN(CC(C)c3ccc(CC(C)C)cc3)[C@@H](Cc3ccc(O)cc3)C2)cc1 (some centres undefined)

pIC50 [12]: 4.96
pIC50 [21]: 4.10
SMILES: N[C@H](C(=O)O)c1ccc(O)cc1 [OXFENICINE]

pIC50 [22]: 6.21
pIC50 [23]: 6.24
SMILES: C=CC(=O)N1CCC(CCOc2ccccc2)CC1
